≈ marks a conversion by molar mass, not a printed value. Read-outs that look alike come from different tables or passages of the source.
How the values were obtained:
U937 [1] = test: Anti-proliferation MTT assay (Example 2, Table 1); assay type: cell-based; conditions: U-937; U937 human histiocytic lymphoma
Protocol: (§3) A given number of cells were cultivated in 96-well plates with serial dilutions of the drugs up to 100 ng/ml. Tubulysin A is used as a positive control, whereas methanol is used as a negative control. After 5 days of incubation the metabolic activities of the cells were measured using MTT-assay as described under the methods section.

[2] = tested on: U-2 OS human osteosarcoma cells; test: cells; assay type: cell-based; conditions: Homo sapiens, U2OS, average of two measurements, read-out: IC50
Protocol: (§1) Cytotoxicity testing of pretubulysin (AU827), N-desmethyl-pretubulysin (AU816) and Tubulysin A and D was performed as follows: Cells were seeded at 6×10^3 cells per well of 96-well plates in 180 μl complete medium and directly treated with varying concentrations of (pre-)tubulysins diluted in methanol. Each compound was tested in duplicate as well as the internal methanol control. After 5 d incubation, 20 μl of 5 mg/ml MTT (Thiazolyl blue tetrazolium bromide) in PBS was added per well and it was further incubated for 2 h at 37° C. The medium was then discarded and cells were washed with 100 μl PBS before adding 100 μl 2-propanol/10 N HCl (250:1) in order to dissolve formazan granules.
(§2) The absorbance at 570 nm was measured using a microplate reader (EL808, Bio-Tek Instruments Inc.), and cell viability was expressed as percentage relative to the respective methanol control. IC50 values were obtained by plotting relative growth inhibition in % against the compound concentration on a logarithmic scale. After sigmoidal curve fitting IC50 values can be determined. The IC50[per ml] are shown in the following table (values represent the average of two measurements):
Similarly cytotoxicity testing of Pretubulysin-related compounds in U-2 OS human osteosarcoma cells was performed and was further compared with AU 339 and AU 954, compounds mentioned in WO2008/106080 and WO2004/046170. The IC50 values are shown in the following table (values represent the average of two measurements): […]

SW-480 = test: Anti-proliferation MTT assay (Example 2, Table 1); assay type: cell-based; conditions: SW480; SW-480 human colon adenocarcinoma
Protocol: as §3

HL-60 cells = test: Apoptosis induction, DNA laddering; assay type: cell-based, human; conditions: for apoptosis induction (DNA laddering): HL-60, 24 hours after treatment
Protocol: Detection of DNA laddering: Apoptotic DNA fragmentation was investigated using the method described by Gong et al. 1-2 μg DNA were loaded into a well of a 1.7% agarose gel, separated by electrophoresis at 4 volts/cm for approximately 4 hours using 0.5×TBE buffer (0.045 M Tris-borate, 1 mM EDTA). The resulting bands were stained by ethidium bromide and detected under UV-light.
Anti-mitotic agents like epothilone (Trivedi, M. et al., Future Oncol. 4, 483-500 (2008)) disorazol (Elnakady, Y. A. et al., Biochem. Pharmacol. 67, 927-935 (2004); Irschik, H. et al., Antibiot. (Tokyo) 48, 31-35 (1995)), and tubulysin (Khalil, M. et al., Chembiochem. 7, 678-683 (2006)) are known to induce apoptosis in different cancer cell lines. A hallmark of apoptosis induced by animitotic agent is the cleavage the chromosomal DNA into distinct fragments which can be separated via gel electrophoresis to give the so called DNA-Ladder. We tested the ability of pre-tubulysin-816 and -827 to induce apoptosis in HL-60 cell lines. Growing cells were treated with different concentrations of the drugs for 24 and 48 hours. After that cells were collected with centrifugation and the chromosomal DNA was separated by using agarose gel electrophoresis as described in the methods section. The resulting DNA bands were stained with ethidium bromide and visualized under UV-light. […] However, the concentration of Pre-tubulysin-816 that was needed to induce apoptosis in HL-60 cells was about 10 folds higher than that of pre-tubulysin-827 under the same experimental conditions. In Summary pre-tubulysins 816 and 827 are novel antimitotic drugs that target the microtubules, induce G2M arrest, and induce apoptosis in cancer cell lines. However, the molecular details of apoptosis induction caused by these Drugs is still to be investigated.

COS-7 = test: cells; assay type: cell-based, African green monkey; conditions: Chlorocebus sabaeus; COS-7, average of two measurements; read-out: IC50
Protocol: as §1
as §2, with “measurements): […]” for “measurements):”

L929 [3] = test: cells; assay type: cell-based, mouse; conditions: Mus musculus; L929, average of two measurements; read-out: IC50
Protocol: as §1
as §2, with “measurements): […]” for “measurements):”

L929 [4] = test: Anti-proliferation MTT assay (Example 2, Table 1); assay type: cell-based; conditions: L929 mouse connective tissue fibroblast
Protocol: as §3

SH-SY5Y = test: cells; assay type: cell-based, human; conditions: Homo sapiens, average of two measurements, read-out: IC50
Protocol: as §1
as §2, with “measurements): […]” for “measurements):”

A549 = test: cells; assay type: cell-based, human; conditions: Homo sapiens; A549, average of two measurements; read-out: IC50
Protocol: as §1
as §2, with “measurements): […]” for “measurements):”

SW480 = test: cells; assay type: cell-based, human; conditions: Homo sapiens; SW480, average of two measurements; read-out: IC50
Protocol: as §1
as §2, with “measurements): […]” for “measurements):”

HEK293T = test: cells; assay type: cell-based, human; conditions: Homo sapiens, HEK-293T, average of two measurements, read-out: IC50
Protocol: as §1
as §2, with “measurements): […]” for “measurements):”

HL-60 = test: cells; assay type: cell-based, human; conditions: Homo sapiens; HL-60, average of two measurements; read-out: IC50
Protocol: as §1
as §2, with “measurements): […]” for “measurements):”

K562 = test: cells; assay type: cell-based, human; conditions: Homo sapiens; K562, average of two measurements; read-out: IC50
Protocol: as §1
as §2, with “measurements): […]” for “measurements):”

HepG2 = test: cells; assay type: cell-based, human; conditions: Homo sapiens; HepG2, average of two measurements; read-out: IC50
Protocol: as §1
as §2, with “measurements): […]” for “measurements):”

KB3.1 = test: cells; assay type: cell-based, human; conditions: Homo sapiens, KB 3-1; KB3.1, average of two measurements; read-out: IC50
Protocol: as §1
as §2, with “measurements): […]” for “measurements):”

A431 = test: cells; assay type: cell-based, human; conditions: Homo sapiens, A-431; A431, average of two measurements; read-out: IC50
Protocol: as §1
as §2, with “measurements): […]” for “measurements):”

U937 [5] = test: cells; assay type: cell-based, human; conditions: Homo sapiens, U-937; U937, average of two measurements; read-out: IC50
Protocol: as §1
as §2, with “measurements): […]” for “measurements):”

[6] = comparison with prior art compounds

For `CC[C@H](C)[C@H](NC(=O)[C@H]1CCCCN1C)C(=O)N(C)[C@H](CCc1nc(C(=O)N[C@H](CCC(=O)O)Cc2ccccc2)cs1)C(C)C` [pre-tubulysin-816, N-desmethyl-pretubulysin], the IC50 (U937 [1]) was 0.4 ng/mL (≈ 0.61 nM), the IC50 [2] was 3.23 ng/mL (≈ 4.92 nM) and the IC50 [2, 6] was 3.16 ng/mL (≈ 4.82 nM). For the same compound, the IC50 (SW-480) was 1.37 ng/mL (≈ 2.09 nM), the “apoptosis induction (DNA laddering)” value (HL-60 cells) was “able to induce apoptosis” and the “concentration needed to induce apoptosis relative to pre-tubulysin-827” value (HL-60 cells; HL-60, same experimental conditions) was “about 10 folds”. For the same compound, the IC50 (COS-7) was 9.63 ng/mL (≈ 14.7 nM), the IC50 (L929 [3]) was 40 ng/mL (≈ 60.9 nM) and the IC50 (L929 [4]) was 37 ng/mL (≈ 56.4 nM). The IC50 (SH-SY5Y) was 2.9 ng/mL (≈ 4.42 nM), the IC50 (A549) was 31.2 ng/mL (≈ 47.6 nM) and the IC50 (SW480) was 3.16 ng/mL (≈ 4.82 nM). It also gave an IC50 (HEK293T) of 1.68 ng/mL (≈ 2.56 nM), an IC50 (HL-60) of 0.22 ng/mL (≈ 0.335 nM) and an IC50 (K562) of 2.5 ng/mL (≈ 3.81 nM). The IC50 (HepG2) was 8.75 ng/mL (≈ 13.3 nM), the IC50 (KB3.1) was 26.3 ng/mL (≈ 40.1 nM) and the IC50 (A431) was 0.34 ng/mL (≈ 0.518 nM). The IC50 (U937 [5]) was 0.38 ng/mL (≈ 0.579 nM).
With `CC[C@H](C)[C@H](NC(=O)[C@H]1CCCCN1C)C(=O)N(C)[C@H](CCc1nc(C(=O)N[C@@H](Cc2ccccc2)C[C@H](C)C(=O)O)cs1)C(C)C` [pre-tubulysin-827, pretubulysin] the IC50 (U937 [1]) was 0.09 ng/mL (≈ 0.134 nM), the IC50 [2] was 0.56 ng/mL (≈ 0.836 nM) and the IC50 [2, 6] was 0.56 ng/mL (≈ 0.836 nM). The IC50 (SW-480) was 0.15 ng/mL (≈ 0.224 nM), the “apoptosis induction (DNA laddering)” value (HL-60 cells) was “able to induce apoptosis” and the IC50 (COS-7) was 1.13 ng/mL (≈ 1.69 nM). It also gave an IC50 (L929 [3]) of 3.87 ng/mL (≈ 5.78 nM), an IC50 (L929 [4]) of 4.1 ng/mL (≈ 6.12 nM) and an IC50 (SH-SY5Y) of 0.61 ng/mL (≈ 0.911 nM). It also gave an IC50 (A549) of 4.35 ng/mL (≈ 6.49 nM), an IC50 (SW480) of 0.21 ng/mL (≈ 0.313 nM) and an IC50 (HEK293T) of 0.227 ng/mL (≈ 0.339 nM). The IC50 (HL-60) was 0.0142 ng/mL (≈ 0.0212 nM), the IC50 (K562) was 0.35 ng/mL (≈ 0.522 nM) and the IC50 (HepG2) was 0.64 ng/mL (≈ 0.955 nM). The IC50 (KB3.1) was 2.32 ng/mL (≈ 3.46 nM), the IC50 (A431) was 1.24 ng/mL (≈ 1.85 nM) and the IC50 (U937 [5]) was 0.043 ng/mL (≈ 0.0642 nM).
